Source: US20100184770A1, “COMPOUNDS” (Glaxo Group Limited, priority 2006, published 2010)

Legend:
[1] = test system: histamine-induced congestion; experiment: Intranasal challenge method: whole body plethysmography; assay type: in vivo, guinea pigs; conditions: for inhibition of the response to histamine challenge (PenH AUC): dosed intranasally at 1 mg/ml either 1 hr or 24 hr before histamine challenge
Procedure: Female Dunkin-Hartley guinea pigs 150-250 g are sensitised twice daily for 5 days (week 1) with ovalbumin (OVA) and aluminium hydroxide (Al(OH)3 or Alum) in physiological saline, 25 μl/nostril. Solution is made up at 20 μg/ml OVA, 180 mg/ml Alum. During weeks 2 and 3 animals receive 25 μl/nostril of OVA (5 mg/ml) once daily. During Week 4 guinea pigs will be entered into study but are continually sensitized as per weeks 2 and 3 until the day before dosing with compound or vehicle.
Pretreatment with test compound is performed at various times prior to histamine challenge. Efficacy dose-response curves are determined 1 hr and/or 3 hr after dosing whereas duration of action may be studied up to 7 days post dose. Test compounds are formulated as solutions in 0.9% sterile saline or suspensions in 0.9% sterile saline/tween80.
Guinea pigs were anaesthetised with isoflurane (5%, 2-31/min O2), placed in a supine position, and 25 μl of test compound or vehicle dosed into each nostril using a Gilson pipette. After dosing, animals remain supine for at least 30 seconds during recovery from anaesthesia.
At 30 minutes before the time of histamine challenge, guinea pigs are dosed with atropine sulphate (Sigma A0257, dissolved in saline), 1 mg/kg i.p. Animals are then placed into whole body plethysmograph systems (Buxco® Electronics) where the parameter PenH area under curve (AUC) is recorded as outlined in […], E., SCHWARZE, J., TAKEDA, K., OSHIBA, A., LARSEN, L., IRVIN, C. G. & GELFAND, E. W. (1997) Noninvasive measurement of airway responsiveness in allergic mice using barometric plethysmography. Am. J. Respir. Crit. Care Med. 156, 766-775.
Hamelmann et al. A 10 minute baseline AUC is recorded and if this value is over 1000, the animals are excluded.
After the stipulated pre-dose time has been reached, guinea pigs are re-anaesthetised with isoflurane and dosed with either 10 mM or 15 mM histamine or phosphate-buffered saline (PBS), (25 μl per nostril). On recovery from anaesthesia animals are returned to the individual plethysmograph chambers and 4×10 min consecutive PenH AUC recordings are made. These recordings are summed to give a cumulative AUC over 40 mins post histamine challenge for each animal. Data are analysed using ANOVA with post-hoc Fishers LSD test (general linear models, Statistica®) and finally Hochberg adjustment. Inhibition of histamine-induced congestion is determined by statistically significant differences between the mean responses of compound pre-treated groups compared to the vehicle pre-treated, histamine-challenged group.

[2] = target: T1, human H1 receptor (Homo sapiens, UniProt P35367); experiment: Histamine H1 functional antagonist assay: determination of functional pKi values (FLIPR); assay type: cell-based; conditions: CHO cells expressing human H1 receptor, histamine at EC80, FLIPR, read-out: average pKi (pKb) at H1 (converted)
T1 construct: expressed in transfected cells
T1 sequence (P35367 whole entry): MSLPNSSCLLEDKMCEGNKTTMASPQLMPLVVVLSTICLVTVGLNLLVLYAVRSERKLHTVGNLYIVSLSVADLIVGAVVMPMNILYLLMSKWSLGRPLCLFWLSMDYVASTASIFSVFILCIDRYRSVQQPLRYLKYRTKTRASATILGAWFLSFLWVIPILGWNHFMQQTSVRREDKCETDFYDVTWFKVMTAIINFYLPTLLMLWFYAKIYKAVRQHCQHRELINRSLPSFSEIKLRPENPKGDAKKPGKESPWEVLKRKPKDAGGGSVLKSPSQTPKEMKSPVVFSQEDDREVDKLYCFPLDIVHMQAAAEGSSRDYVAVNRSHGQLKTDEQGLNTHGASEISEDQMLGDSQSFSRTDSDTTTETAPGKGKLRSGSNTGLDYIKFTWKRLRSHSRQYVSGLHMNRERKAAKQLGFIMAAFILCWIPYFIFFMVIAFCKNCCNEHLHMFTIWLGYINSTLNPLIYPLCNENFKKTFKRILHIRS
Procedure: (§1) 1. Generation of Histamine H1 Cell Line The human H1 receptor is cloned using known procedures described in the literature [Biochem. Biophys. Res. Commun., 201(2):894 (1994)]. Chinese hamster ovary (CHO) cells stably expressing the human H1 receptor are generated according to known procedures described in the literature [Br. J. Pharmacol., 117(6):1071 (1996)].
The histamine H1 cell line is seeded into non-coated black-walled clear bottom 384-well tissue culture plates in alpha minimum essential medium (Gibco/Invitrogen, cat no. 22561-021), supplemented with 10% dialysed foetal calf serum (Gibco/Invitrogen cat no. 12480-021) and 2 mM L-glutamine (Gibco/Invitrogen cat no 25030-024) and is maintained overnight at 5% CO2, 37° C.
Excess medium is removed from each well to leave 10 μl. 30 μl loading dye (250 μM Brilliant Black, 2 μM Fluo-4 diluted in Tyrodes buffer+probenecid (145 mM NaCl, 2.5 mM KCl, 10 mM HEPES, 10 mM D-glucose, 1.2 mM MgCl2, 1.5 mM CaCl2, 2.5 mM probenecid, pH adjusted to 7.40 with NaOH 1.0 M)) is added to each well and the plates are incubated for 60 min at 5% CO2, 37° C.
10 μl of test compound, diluted to the required concentration in Tyrodes buffer+probenecid (or 10 μl Tyrodes buffer+probenecid as a control) is added to each well and the plate is incubated for 30 min at 37° C., 5% CO2. The plates are then placed into a FLIPR™ (Molecular. Devices, UK) to monitor cell fluorescence (λex=488 nm, λEM=540 nm) in the manner described in Sullivan et al., (In: Lambert DG (ed.), Calcium Signaling Protocols, New Jersey: Humana Press, 1999, 125-136) before and after the addition of […] at a concentration that results in the final assay concentration of histamine being EC80.
Functional antagonism is indicated by a suppression of histamine induced increase in fluorescence, as measured by the FLIPR™ system (Molecular Devices). By means of concentration effect curves, functional affinities are determined using standard pharmacological mathematical analysis.

[3] = target: T1, human H1 receptor; experiment: Histamine H1 functional antagonist assay: determination of antagonist duration (washout, FLIPR); assay type: cell-based; conditions: at one or more time points after washout
Procedure: as §1
To determine the antagonist duration, cells are cultured overnight in non-coated black-walled clear bottom 96-well tissue culture plates, are washed with PBS and are incubated with a concentration of antagonist chosen to give an approximate DR in the range 30-300. Following the 30 min antagonist incubation period, the cells are washed two or three times with 200 μl of PBS and then 100 μl Tyrodes buffer is added to each well to initiate antagonist dissociation. Following incubation for predetermined times, typically 30-270 min at 37° C., the cells are then washed again with 200 μl PBS and are incubated with 100 Tyrodes buffer containing Brilliant Black, probenecid and Fluo-4 for 45 min at 37° C., as described above. After this period, the cells are challenged with histamine in the FLIPR™ as described above. The dose ratio at each time point is used to determine the fractional H1 receptor occupancy by the following equation: fractional receptor occupancy=(DR-1)/DR. The decrease in receptor occupancy over time approximates to a straight line and is analysed by linear regression. The slope of this straight line fit is used as an index of the dissociation rate of the antagonist. The dose ratios for antagonist treated cells and for antagonist treated and washed cells at each time point are used to calculate a relative dose ratio (rel DR) which is also used as an index of antagonist duration. Antagonists with long duration of action produce rel DR values close to 1, and antagonists with short duration of action produce rel DR values that approaches the dose ratio value obtained for antagonist treatment alone.

Row | Compound | inhibition of the response to histamine challenge (PenH AUC) [1] | Ki [2] [nM] | duration of action compared with azelastine in the histamine H1 functional antagonist assay [3] | inhibition of the response to histamine challenge (PenH AUC), 3 hr timepoint ([1]; another experiment, dosed intranasally at 1 mg/ml and at 10 mg/ml 3 hr before histamine challenge) | inhibition of the response to histamine challenge (PenH AUC), 24 hr timepoint ([1]; another experiment, dosed intranasally at 1 mg/ml and at 10 mg/ml 24 hr before histamine challenge)
1 | O=C(CC(F)(F)F)NCCN1CCC[C@@H]1Cn1nc(Cc2ccc(Cl)cc2)c2ccccc2c1=O.O=C(O)C(F)(F)F [Example 36b, N-[2-((2R)-2-{[4-[(4-chlorophenyl)methyl]-1-oxo-2(1H)-phthalazinyl]methyl}-1-pyrrolidinyl)ethyl]-3,3,3-trifluoropropanamide, trifluoroacetate] | significantly (p<0.05) inhibited the response at both timepoints | < 31.6 | longer duration of action than azelastine | – | –
2 | COCCCC(=O)NCCN1CCC[C@@H]1Cn1nc(Cc2ccc(Cl)cc2)c2ccccc2c1=O.O=C(O)C(F)(F)F [Example 34c, N-[2-((2R)-2-{[4-[(4-Chlorophenyl)methyl]-1-oxo-2(1H)-phthalazinyl]methyl}-1-pyrrolidinyl)ethyl]-4-(methyloxy)butanamide, trifluoroacetate salt] | significantly (p<0.05) inhibited the response at both timepoints | – | – | – | –
3 | COCCCC(=O)NCCN1CCC[C@@H]1Cn1nc(Cc2ccc(Cl)cc2)c2ccccc2c1=O.Cl [Example 34a, N-[2-((2R)-2-{[4-[(4-Chlorophenyl)methyl]-1-oxo-2(1H)-phthalazinyl]methyl}-1-pyrrolidinyl)ethyl]-4-(methyloxy)butanamide, hydrochloride salt] | significantly (p<0.05) inhibited the response at both timepoints | – | – | – | –
4 | CN1CCCC(n2nc(Cc3ccc(Cl)cc3)c3ccccc3c2=O)CC1 (stereo not drawn) [azelastine, reference compound] | failed to show a similar duration of action | – | – | – | –
5 | COCCCC(=O)NCCN1CCC[C@@H]1Cn1nc(Cc2ccc(Cl)cc2)c2ccccc2c1=O [Example 34, N-[2-((2R)-2-{[4-[(4-Chlorophenyl)methyl]-1-oxo-2(1H)-phthalazinyl]methyl}-1-pyrrolidinyl)ethyl]-4-(methyloxy)butanamide] | significantly (p<0.05) inhibited the response at both timepoints | – | – | significantly (p<0.05) inhibited the response at the 3 hr timepoint | not the 24 hr timepoint
